Consider two molecules from patent US7678795B2, “Pyridazines as 11b-HSD1 inhibitors” (Hoffman-La Roche Inc., priority 2005, dated 2010).

Each structure is given as a SMILES string. pIC50: −log10 of the molar value.

As usually defined, the pIC50 is −log10 of the IC50, conventionally taken in molar units.

For this experiment, the target named is T1, human 11beta-HSD1 (Homo sapiens, UniProt P28845).
T1 construct: made in house; host or cells: HEK293 cells (ATCC CRL-1573), transient transfection; microsomal fraction
As to the kind of experiment: Microsome assay (cortisone to cortisol conversion, ELISA-based cortisol detection). It is filed as biochemical. The note with it: microsomes from HEK293 cells transiently expressing human 11beta-HSD1; Cortisone 50-200 nM, NADPH 1 mM; 60 min at 37° C.; read-out: 11-beta-HSD 1 IC50. Here is the method: Transient Expression and Partial Purification:
The cDNA encoding the human 11beta-HSD1 protein was cloned into the expression vector pcDNA3 ([…]). This construct (for details see Alex Odermatt et al.; J Biol. Chem.,1999, Vol. 274, Issue 40, 28762-28770) was used to transiently express the protein in HEK293 cells (ATCC number: CRL-1573, described in Graham, F. L., Smiley, J., Russell, W. C., Nairn, R.; (1977)) using lipofectamine. 48 h after transfection cells were washed twice with ice-cold PBS (Phosphate buffered Saline). To 1 volume of cell suspension in PBS 2 volumes of ice-cold lysis buffer (50 mM Tris; pH7.5; 1 mM EDTA; 100 mM NaCl) were added. The cells were lysed by Potter-homogenization (20 strokes). The resulting homogenate was sonicated wit a tip sonicator (10% output; 2×30 sec.) and cleared by a low speed centrifugation (10 min×9000 g; 4° C.). […]
Microsomes isolated from HEK293 cells transiently expressing human 11beta-HSD1 (for details see above) were incubated in assay buffer (100 mM NaCl; 1 mM EDTA; 1 mM EGTA; 1 mM MgCl; 250 mM Sucrose; 20 mM Tris pH 7.4; Cortisone 50-200 nM and NADPH 1 mM) together with different concentrations of test substances. […] The amount of Cortisol produced in this assay was determined using a commercially available, ELISA-based Cortisol-detection kit (Distributed by Assay Design, Inc.). […]

T1 sequence (P28845 whole entry): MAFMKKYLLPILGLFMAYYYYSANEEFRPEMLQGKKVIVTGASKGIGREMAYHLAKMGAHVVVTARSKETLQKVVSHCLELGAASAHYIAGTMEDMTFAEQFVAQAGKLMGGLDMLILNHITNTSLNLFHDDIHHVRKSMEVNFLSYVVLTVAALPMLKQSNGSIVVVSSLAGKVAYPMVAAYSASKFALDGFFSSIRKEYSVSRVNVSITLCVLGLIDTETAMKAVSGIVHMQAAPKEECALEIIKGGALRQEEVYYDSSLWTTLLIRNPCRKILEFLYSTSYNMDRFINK

For the molecule `FC(F)(F)c1ccccc1-c1cc2c(nn1)CCCCCC2` [Example 41, 3-(2-Trifluoromethyl-phenyl)-5,6,7,8,9,10-hexahydro-cycloocta[c]pyridazine], the pIC50 is 8.52.

On to `Cc1c(-c2cc3c(nn2)[C@@]2(C)CC[C@@H]3C2(C)C)cnn1-c1ccccc1` [Example 1, (1S,8R)-1,11,11-Trimethyl-5-(5-methyl-1-phenyl-1H-pyrazol-4-yl)-3,4-diaza-tricyclo[6.2.1.0^2,7]undeca-2(7),3,5-triene], for which the pIC50 was 7.52.
